Results on one substance are retold here after US5571799A, “(2'-5') oligoadenylate analogues useful as inhibitors of host-v5.-graft response” (Basco, Ltd., priority 1994, dated 1996).

Data set [1] deals with snake venom phosphodiesterase. The data set is described as follows: Stability to the action of snake venom phosphodiesterase. It counts as in vitro ADME. On the procedure:
Determination of (2'-5')oligoadenylates and analogues stability to the action of snake venom phosphodiesterase
Upon entering an organism 2'-5'A3 and the analogues are quickly hydrolyzed to monomeric compound(s). Prior to administration of 2'-5'A3 analogues in vivo to animal, it was considered necessary to determine their stability towards snake venom phosphodiesterase in comparison to the parent 2'-5'A3.
The solution of 3 μg of the snake venom phosphodiesterase (Boehringer Mannheim cat. No. 108260) in 30 μl of 0.1 M Tris HCl buffer, containing 0.002 M MgCl2 (pH 8.78) is added to the solution of 4-5·10^-7 M trimer in 100 μl of the same buffer. The solution was left standing at 20° C. At regular intervals, 10 μl samples were taken, heated at 90° C. for 1 minute and preparative thin layer chromatography was performed on the Silufole™ plates, using a 7:1:2 mixture of isopropanol:aqueous ammonia:water.
The spot, corresponding to the initial trimer, was cut out, the substance was extracted with 2 ml of 0.5% solution of the dodecylsulfate sodium salt solution for 2 hours, and the optical density of the solution was determined at 260 nm.

Data set [2] relates to T-lymphocytes (murine splenocytes) stimulated with Concanavalin A. The data set can be described thus: In vitro blast-transformation of murine lymphocytes, Con A (T-lymphocyte mitogen), [3H]-thymidine. It is filed as cell-based, mouse (CBA). Conditions: Con A 5 μg/ml; 5 × 10^-6 M; control 22,296. The text has this: (§1) The immune reactions in an organism begins with the division of lymphocytes. In vitro investigation of the lymphocyte blast-transformationreaction under the influence of mitogens makes it possible to use this model system to select chemically synthesized 2'-5'A3 analogues which suppress division of lymphocytes. Using Concanavalin A and lipopolysaccharide as mitogens, the effect of analogues on the division of T- and β-lymphocytes may be investigated.
CBA mice 8-10 weeks old were used for these experiments. A suspension of mouse splenocytes were obtained by gently teasing spleens with forceps. […] Cultures were maintained in 5% CO2 at 37° C. One μCi of ^3 H-thymidine (Isotop®) was added to each well 4 hours before the end of the incubation period. Incorporation of ^3 H-thymidine into cellular DNA was determined by liquid scintillation counting using standard techniques. Oligoadenylate was added to the medium at the beginning of culturing to achieve the final concentration.
(§2) (Con A being a mitogen for T-lymphocytes and LPS being a mitogen for β-lymphocytes).

Data set [3] has as its system β-lymphocytes (murine splenocytes) stimulated with lipopolysaccharide. The data set is described as follows: In vitro blast-transformation of murine lymphocytes, LPS (β-lymphocyte mitogen), [3H]-thymidine. It is filed as cell-based, mouse (CBA). The conditions noted are these: LPS 0.1 μg/ml; 5 × 10^-6 M; control 27,133.
From the text: as §1
CBA mice 8-10 weeks old were used for these experiments. A suspension of mouse splenocytes were obtained by gently teasing spleens with forceps. Lymphocytes cultivated in flat-bottomed 96-well plates (Linbro) in RPMI-1640 medium (Flow Lab.) were supplemented with 2 mM 1-glutamine, 10 μg/ml gentamicin, 10^-5 M 2-mercaptoethanol and 10% heat inactivated fetal calf serum (Flow Lab). Cultures were maintained in 5% CO2 at 37° C. One μCi of ^3 H-thymidine (Isotop®) was added to each well 4 hours before the end of the incubation period. Incorporation of ^3 H-thymidine into cellular DNA was determined by liquid scintillation counting using standard techniques. Oligoadenylate was added to the medium at the beginning of culturing to achieve the final concentration.
as §2

The next data set has as its system T-helpers. The data set can be described thus: Immune system of monkeys: T-helpers, flow cytofluorografic analysis. It is filed as in vivo, Macaque Rh. monkeys. The protocol:
(§3) The experiments were performed on 4 year-old Macaque Rh. monkeys. The levels of the principal subpopulations of T-lymphocytes, IgA, IgG, IgM and the amount of α- and γ-interferon and interleukin II after administration (2'-5')olygoadenylate and its analogies at the concentration of 50 and 25 μg/kg of the body weight was investigated.
(§4) FLOW CYTOFLUOROGRAFIC ANALYSIS OF LYMPHOCYTE SUBSETS
(§5) Blood samples (100 μl of whole blood) were placed into a 12×17 tube. To these cells 20 μl of purified monoclonal antibodies were added with specificity for human cytotoxic/suppressor cells anti-Leu-2a (CD8), human helper/inducer anti-Leu-3a (CD4) and FITC conjugated monoclonal antibodies with specificity for natural killer cells-anti-Leu11c (CD16) (Becton Dickinson, San Jose). After 30 minutes incubation on ice, the cells were washed once and 20 μl of goat-antimouse chain phycoerythrin (Sigma P1286) conjugate were added to the tube with anti-Leu-2a and anti-Leu-3a monoclonal antibodies.
(§6) After erythrocyte lysing with FACS lysing solution (Becton Dickinson, San Jose) the cells were analyzed on FACScan flow cytometer (Becton Dickinson, San Jose) with scatter gate set on lymphocyte fraction.

The next data set relates to T-suppressors. The data set is described as follows: Immune system of monkeys: T-suppressors, flow cytofluorografic analysis. It is filed as in vivo, Macaque Rh. monkeys. On the procedure: Immunosuppressive activity of the prototype 2'-5'A3 and two analogues (2'-5')A2 Ar-epoxy and (2'-5')A2 A^l-epoxy were investigated in monkeys. The experiments were performed on 4 year-old Macaque Rh. monkeys. The levels of the principal subpopulations of T-lymphocytes, IgA, IgG, IgM and the amount of α- and γ-interferon and interleukin II after administration (2'-5')olygoadenylate and its analogies at the concentration of 50 and 25 μg/kg of the body weight was investigated.
as §4, §5, §6

The subject of the next data set is T-killers and T-helpers. The data set can be described thus: Immunosuppressive activity in vivo in monkeys. More on the design: species or system Macaque Rh. monkeys. Conditions: monkeys, IV, disodium salt. The protocol:
as §3, §4, §5, §6

The subject of data set [4] is Type I and II herpes virus. Conditions: cited from earlier work.

“Also recorded” adds a separate entry of the source.

In the case of “Adenylyl (2'-5')adenylyl (2'-5')-9-(2,3-anhydro-β-D-lyxofuranosyl) adenine disodium salt [(2'-5')A2 A^l-epoxy]”, the “T 1/2 (time for optical density of initial trimer to decrease by 50%)” value in data set [1] (20° C., 0.1 M Tris HCl, 0.002 M MgCl2, pH 8.78) was determined as 10.5 h. The “stability / resistance to phosphodiesterase” value in data set [1] (in words) was “significantly more resistant towards hydrolysis by phosphodiesterase”. Also, the “DNA synthesis at [^3 H]-thymidine [incorporated counts/min.]” value in data set [2] was 15,749 counts/min; in data set [3], 10,828 counts/min. The T-helpers came to 27% in the data set on T-helpers (Table 8, single IV 25 μg/kg, day 2, control (day before) 26.2); 25.3% with T-helpers (Table 8, single IV 25 μg/kg, day 4, control (day before) 26.2); 20.5% in the data set with T-helpers (Table 9, single IV 50 μg/kg, day 2, control (day before) 22); 18.4% with T-helpers (Table 9, single IV 50 μg/kg, day 4, control (day before) 22). Besides, the T-suppressors in the data set on T-suppressors (Table 8, single IV 25 μg/kg, day 2, control (day before) 53.1) was 44%; with T-suppressors (Table 8, single IV 25 μg/kg, day 4, control (day before) 53.1), 43.4%; with T-suppressors (Table 9, single IV 50 μg/kg, day 2, control (day before) 42) it was 44%; with T-suppressors (Table 9, single IV 50 μg/kg, day 4, control (day before) 42), 43.4%. The “immunosuppressive activity, in words” value with T-killers and T-helpers was “considerably lower than that exhibited by (2'-5')A2 Ar-epoxy; also recorded: exhibit immunosuppressive activity in the in vivo experiments”; in the data set on T-killers and T-helpers (listed as (2 -5')A2 A^l-epoxy), “strong immunosuppressive activity specifically against T-killers and T-helpers”. Also, the “activity against Type I and II herpes virus, in words” value in data set [4] is “active against the Type I and II herpes virus”.
